Results on three molecules are retold here after ChEMBL document CHEMBL4699509, “Asaroidoxazines from the Roots of Asarum asaroides Induce Apoptosis in Human Neuroblastoma Cells” (J Nat Prod, 2020).

Activity calls are given as the source filed them. No cut-off for these calls is given here.

For assay [1], the system named is SH-SY5Y. Briefly: Induction of apoptosis in human SH-SY5Y cells assessed as increase in caspace-3/7 expression at 1 to 30 uM after 12 hrs by Caspase-Glo assay. The assay is classed as functional, cell-based. The conditions noted are these: dose microM 1-30, time 12.0 hrs.
Assay [2] concerns SH-SY5Y. Briefly: Induction of apoptosis in human SH-SY5Y cells assessed as decrease in ATP level at 1 uM by CellTiter-Glo assay relative to control. The assay is classed as functional. Also noted: scale not given: the % may be the effect or the level left. A general note: ATP-based viability assays read luminescence as a measure of living cells.
Assay [3] relates to SH-SY5Y. Briefly: Induction of apoptosis in human SH-SY5Y cells assessed as nuclear condensation at 1 uM by Hoechst 33342 staining based inverted fluorescent microscopic method (reference value: 2.1%). The assay is classed as functional.
Assay [4] concerns SH-SY5Y. Briefly: Cytotoxicity against human SH-SY5Y cells assessed as reduction in cell viability by CCK8 assay. The format is functional, cell-based. (Formazan colour is commonly taken as a measure of viable cells.)
The test system of assay [5] is SH-SY5Y. Kind of assay: Induction of apoptosis in human SH-SY5Y cells assessed as decrease in ATP level at 30 uM by CellTiter-Glo assay relative to control. Also noted: scale not given: the % may be the effect or the level left. The assay is classed as functional.
For assay [6], the system named is SH-SY5Y. Briefly: Induction of apoptosis in human SH-SY5Y cells assessed as nuclear fragmentation at 1 to 30 uM by Hoechst 33342 staining based inverted fluorescent microscopic method. The assay is classed as functional, cell-based. The note with it: dose microM 1-30.
The subject of assay [7] is SH-SY5Y. Kind of assay: Induction of apoptosis in human SH-SY5Y cells assessed as nuclear condensation at 30 uM by Hoechst 33342 staining based inverted fluorescent microscopic method (reference value: 2.1%). The format is functional.
Assay [8] concerns SH-SY5Y. Kind of assay: Induction of apoptosis in human SH-SY5Y cells assessed as nuclear condensation at 1 to 30 uM by Hoechst 33342 staining based inverted fluorescent microscopic method. The assay is classed as functional, cell-based. The conditions noted are these: dose microM 1-30.

For `COc1ccc(OC)c2c1-c1c3c(cc4c(=O)onc(c14)[C@H]2SCC(N)=O)OCO3`, the result with SH-SY5Y [1], in the assay with SH-SY5Y [6] and in the assay with SH-SY5Y [8] was Active. Moreover, the Activity in the assay on SH-SY5Y [2] is 57.8%; in the assay with SH-SY5Y [3], 36.8%; with SH-SY5Y [4], “Dose-dependent effect”; in the assay with SH-SY5Y [5], 51.4%; in the assay on SH-SY5Y [7] it was 70.9%. Moreover, the IC50 (usually the concentration at which inhibition is half-maximal) with SH-SY5Y [4] came to 2.7 µM.
On to `COc1ccc(OC)c2c1cc1c3c(cc4c(c32)OCO4)C(=O)N1`, for which, in the assay on SH-SY5Y [4], the Activity result was “Dose-dependent effect” and the IC50 amounted to 21.2 µM.
Consider `COc1cc(OC)c2c(c1)-c1c3c(cc4c(=O)onc(c14)[C@H]2SCC(N)=O)OCO3`, for which, in the assay on SH-SY5Y [4], the Activity entry is “Dose-dependent effect” and the IC50 was found to be 11.2 µM.
